target: T1, human FSH receptor (Homo sapiens, UniProt P23945); assay: HTRF assay for measuring cAMP in cells (FSH antagonism); format: cell-based; details: hFSHR clone 16 cells (CHO cells stably transfected with the human FSH receptor); in the presence of 1e-9 mol/l hFSH; cAMP readout; read-out: IC50 (FSH antagonistic effect in the HTRF assay)
T1 construct: expressed in transfected cells; host or cells: CHO cells (hFSHR clone 16)
T1 sequence (P23945 18-695): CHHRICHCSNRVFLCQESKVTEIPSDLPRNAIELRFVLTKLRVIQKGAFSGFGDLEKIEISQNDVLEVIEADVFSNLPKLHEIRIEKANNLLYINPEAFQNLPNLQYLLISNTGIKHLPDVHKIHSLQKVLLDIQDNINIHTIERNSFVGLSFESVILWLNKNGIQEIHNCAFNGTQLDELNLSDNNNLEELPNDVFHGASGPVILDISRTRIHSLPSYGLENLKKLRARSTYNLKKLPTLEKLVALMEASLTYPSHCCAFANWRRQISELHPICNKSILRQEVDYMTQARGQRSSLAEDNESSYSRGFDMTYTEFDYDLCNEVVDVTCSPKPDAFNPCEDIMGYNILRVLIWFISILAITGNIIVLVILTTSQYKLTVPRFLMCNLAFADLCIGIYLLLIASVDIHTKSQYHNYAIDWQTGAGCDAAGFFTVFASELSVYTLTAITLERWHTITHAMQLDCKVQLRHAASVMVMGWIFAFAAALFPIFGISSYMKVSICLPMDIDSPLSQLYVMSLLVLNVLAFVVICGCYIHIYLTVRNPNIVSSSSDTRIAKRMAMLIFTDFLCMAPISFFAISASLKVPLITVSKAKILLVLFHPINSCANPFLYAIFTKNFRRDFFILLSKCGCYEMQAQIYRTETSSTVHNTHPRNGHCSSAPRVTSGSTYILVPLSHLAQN
Description: HTRF Assay for Measuring cAMP in Cells
The method is based on a competitive immunoassay between native cAMP, which has been produced by the cells, and cAMP which is labelled with cAMPD2 conjugate. The tracer binding was visualized by a monoclonal antibody, anti-cAMP labelled with cryptate [HTRF=homogeneous time-resolved fluorescence].
The specific signal is inversely proportional to the cAMP concentration of the samples employed.
The 665 nm/620 nm fluorescence ratio was evaluated.
The following material was used: 96-well plates for the tissue culture, 96-well plates with black edge and black base (e.g. Fluotrac 600 from Greiner), 96-well plates for the substance dilutions of polypropylene and cAMP Femtomolar (4000wells Kit, CIS Bio International #62AM5PEJ).
The following reagents were used: BSA (bovine serum albumin) Fraction V protease-free, IBMX (3-isobutyl-1-methylxanthine), hFSH (human follicle stimulating hormone), Triton X-100 analytical grade, potassium fluoride analytical grade, G 418 (Geneticin) and Accutase.
Buffer 1 (washing and testing buffer) contained PBS, 1 mM CaCl2, 1 mM MgCl2, 0.2% glucose; 0.1% BSA, 1 mM IBMX.
Buffer 2 (2× lysis buffer) contained 1% Triton X-100 in PBS (without CaCl2 and MgCl2).
Buffer 3 (assay buffer) contained 50 mM potassium phosphate buffer (pH 7.0); 800 mM potassium fluoride; 0.2% BSA (always added fresh).
On day 1, the cells were seeded in 96-well plates (3×10^4 cells per well hFSHR clone 16 cells (CHO cells stably transfected with the human FSH receptor in 150 μl of medium). The next day, test substance dilutions were made up. For this purpose, all the substances were diluted in ice-cold buffer 1 (with or without hFSH), and the substance dilutions were placed on ice until applied to the cells.
The cell supernatant was then aspirated off, and the cells were washed 2× with 200 μl of buffer 1. The cells were treated with 60 μl of the appropriate substance concentrations at 37° C. for 2 h. The cells were then lysed with 60 μl of buffer 2 (put onto the supernatant) (on a plate shaker at RT for 30 min).
The test conjugates (cAMP-D2 and anti-cAMP cryptate, CIS Bio) were diluted in buffer 3 in accordance with the manufacturers' information. The actual mixture for measurement was pipetted into a black 96-well plate (in each case 15 μl of the cell lysate diluted with 35 μl of buffer 1; firstly 25 μl of cAMP-D2 conjugate were pipetted and, after 10 min, 25 μl of the anti-cAMP cryptate were added). This is followed by incubation at RT for 90 minutes. The measurement was carried out in a PheraStar (BMG).
Dose-effect curve (hFSH) for the human receptor: 1e-8, 3e-9, 1e-9, 3e-10, 1e-10, 3e-11, 1e-11, 3e-12 mol/l.
The test substances were employed in suitable dilutions in the absence (test for agonism) and in the presence of 1e-9 mol/l hFSH.
The values of the well ratio were averaged and then entered directly in SigmaPlot versus the concentrations. The maximum and minimum values were determined for each plate, and half the difference is to be regarded as IC50.

| Compound | IC50 |
| --- | --- |
| CC(C)Oc1ccc(C#Cc2ccccc2)cc1C(=O)NC(C)(CO)Cc1c[nH]c2ccccc12 (centres unmarked) [Example 1, N-[1-Hydroxymethyl-2-(1H-indol-3-yl)-1-methyl-ethyl]-2-isopropoxy-5-phenylethynyl-benzamide] | 1000 nM |
| COc1ccccc1C#Cc1ccc(OC(C)C)c(C(=O)NC(C)(CO)Cc2c[nH]c3ccccc23)c1 (centres unmarked) [Example 5, N-[1-Hydroxymethyl-2-(1H-indol-3-yl)-1-methyl-ethyl]-2-isopropoxy-5-(2-methoxy-phenylethynyl)-benzamide] | 200 nM |
| COc1ccc(-c2ccc(OC(C)C)c(C(=O)NC(C)(CO)Cc3c[nH]c4ccccc34)c2)cc1OC (racemic) [Example 4, 4-Isopropoxy-3′,4′-dimethoxy-biphenyl-3-carboxylic acid [1-hydroxymethyl-2-(1H-indol-3-yl)-1-methyl-ethyl]-amide] | 50 nM |
| CNC(=O)c1cc(F)cc(-c2ccc(OC(C)C)c(C(=O)NC(C)(CO)Cc3c[nH]c4ccccc34)c2)c1 (centres unmarked) [Example 2, 5′-Fluoro-4-isopropoxy-biphenyl-3,3′-dicarboxylic acid 3-{[2-hydroxy-1-(1H-indol-3-ylmethyl)-1-methyl-ethyl]-amide} 3′-methylamide] | 1000 nM |
| CNC(=O)c1ccc(-c2ccc(OC(C)C)c(C(=O)NC(C)(CO)Cc3c[nH]c4ccccc34)c2)cc1Cl (centres unmarked) [Example 3, 3′-Chloro-4-isopropoxy-biphenyl-3,4′-dicarboxylic acid 3-{[2-hydroxy-1-(1H-indol-3-ylmethyl)-1-methyl-ethyl]-amide}-4′-methylamide] | 100 nM |
